How the values were obtained:
A549 lung cancer cells = experiment: MTT antiproliferative activity against A549; type: cell-based; conditions: MTT assay, drug-sensitive A549
Description: (§1) 3-(4,5-dimethylthiazol-2-yl)-2,5-diphenyltetrazolium bromide (MTT) assay was used to determined the antiproliferative activity of dihydroartemisinin-isatin hybrids 5a-e and 6a-j with three-carbon linker against A549, multidrug-resistant A549/DOX and A549/DDP lung cancer cell lines as well as cytotoxicity towards normal lung epithelial cell line (BEAS-2B). The inhibitory effects were expressed in terms of half maximal inhibitory concentration (IC50) values.
(§2) A549, A549/DOX, and A549/DDP lung cancer cells (2×10^3) were plated in each well of a 96-well plate and were allowed to adhere and spread for 24 h. The […] were added to a final concentration of 100 µM, and the cells were cultured for 24 h at 37 °C. 3-(4,5-dimethyl-2-thiazolyl)-2,5-diphenyltetrazolium bromide (MTT) solution (10 µL) was added to each well, and the cultures were incubated for an additional 4 h. A further 100 µL of […] was added and incubation continued overnight. The absorbance at 540 nm was determined in each well with a 96-well plate reader. The growth of the treated cells was compared with that of untreated cells.

[1] = test system: A549/DOX (doxorubicin-resistant A549 cells); experiment: MTT antiproliferative activity against doxorubicin-resistant A549; type: cell-based; conditions: for IC50: MTT assay, doxorubicin-resistant A549 cells
Description: as §1, §2

[2] = test system: A549/DDP (cisplatin-resistant A549 cells); experiment: MTT antiproliferative activity against cisplatin-resistant A549; type: cell-based; conditions: for IC50: MTT assay, cisplatin-resistant A549 cells
Description: as §1, §2

[3] = MTT cytotoxicity towards normal lung epithelial cells; conditions: human
Experimental: as §1
(§3) The compounds were dissolved in DMSO with concentrations from 1024 to 1 μg/mL. The NIH/3T3 cells were maintained in culture medium at 37 °C under 5% CO2 atmosphere. Cells were seeded in 96-well plates (1×10^4 cell per well) and allowed to recover for 24 h. After 72 h of exposure, cells were harvested and cell viability was assessed by MTT assay. The CC50 values were calculated by Bliss analysis.

[4] = test system: A549, A549/DOX and A549/DDP lung cancer cell lines; experiment: MTT antiproliferative activity, summarised over the three lung cancer cell lines; type: cell-based; conditions: MTT assay, span of values over the three lung cancer cell lines; read-out: IC50 (range over A549, A549/DOX and A549/DDP)
Description: as §1, §2

[5] = test system: BEAS-2B normal lung epithelial cell line; experiment: MTT cytotoxicity towards normal lung epithelial cells; conditions: IC50(BEAS-2B)/IC50(A549)
Experimental: as §1, §3

| IC50 (A549 lung cancer cells; Homo sapiens) [µM] | IC50 ([1]; Homo sapiens) [µM] | IC50 ([2]; Homo sapiens) [µM] | IC50 [4] [µM] | RI1 (Resistance index: IC50(A549/DOX)/IC50(A549)) [1] | RI2 (Resistance index: IC50(A549/DDP)/IC50(A549)) [2] | IC50 [3] [µM] | SMILES | IC50 ([3]; BEAS-2B normal lung epithelial cells) [µM] | SI (Selectivity index: IC50(BEAS-2B)/IC50(A549)) [5] | IC50 (A549 lung cancer cells) [µM] | IC50 [1] [µM] | IC50 [2] [µM] |
| --- | --- | --- | --- | --- | --- | --- | --- | --- | --- | --- | --- | --- |
| > 100 | > 100 | > 100 | > 100 | – | – | – | C[C@@H]1CC[C@H]2[C@@H](C)C(=O)O[C@@H]3O[C@@]4(C)CC[C@@H]1[C@]32OO4 [Artemisinin] | > 100 | – | – | – | – |
| 23.2 | 36.6 | 28.8 | – | 1.57 | 1.24 | > 100 | C[C@@H]1CC[C@H]2[C@@H](C)C(OCCCN3C(=O)C(=NNC(N)=S)c4ccccc43)O[C@@H]3O[C@@]4(C)CC[C@@H]1[C@]32OO4 (stereo partly drawn) [6c, 2-(2-oxo-1-(3-(((3R,5aS,6R,8aS,9R,12R,12aR)-3,6,9-trimethyldecahydro-12H-3,12-epoxy[1,2]dioxepino[4,3-i]isochromen-10-yl)oxy)propyl)indolin-3-ylidene)hydrazine-1-carbothioamide] | – | >4.3 | – | – | – |
| > 100 | > 100 | > 100 | – | – | – | > 100 | C[C@@H]1CC[C@H]2[C@@H](C)C(OCCCN3C(=O)C(=NNC(N)=O)c4ccccc43)O[C@@H]3O[C@@]4(C)CC[C@@H]1[C@]32OO4 (stereo partly drawn) [6b, 2-(2-oxo-1-(3-(((3R,5aS,6R,8aS,9R,12R,12aR)-3,6,9-trimethyldecahydro-12H-3,12-epoxy[1,2]dioxepino[4,3-i]isochromen-10-yl)oxy)propyl)indolin-3-ylidene)hydrazine-1-carboxamide] | – | – | – | – | – |
| 52.6 | 78.5 | 40.7 | – | – | 0.77 | > 100 | COc1ccc2c(c1)C(=NNC(N)=S)C(=O)N2CCCOC1O[C@@H]2O[C@@]3(C)CC[C@H]4[C@H](C)CC[C@@H]([C@H]1C)[C@@]24OO3 (stereo partly drawn) [6j, 2-(5-methoxy-2-oxo-1-(3-(((3R,5aS,6R,8aS,9R,12R,12aR)-3,6,9-trimethyldecahydro-12H-3,12-epoxy[1,2]dioxepino[4,3-i]isochromen-10-yl)oxy)propyl)indolin-3-ylidene)hydrazine-1-carbothioamide] | – | >1.9 | – | – | – |
| > 100 | > 100 | > 100 | – | – | – | > 100 | C[C@@H]1CC[C@H]2[C@@H](C)C(OCCCN3C(=O)C(=O)c4cc(F)ccc43)O[C@@H]3O[C@@]4(C)CC[C@@H]1[C@]32OO4 (stereo partly drawn) [5b, 5-fluoro-1-(3-(((3R,5aS,6R,8aS,9R,12R,12aR)-3,6,9-trimethyldecahydro-12H-3,12-epoxy[1,2]dioxepino[4,3-i]isochromen-10-yl)oxy)propyl)indoline-2,3-dione] | – | – | – | – | – |
| 55.5 | 29.9 | 49.7 | – | 0.54 | 0.89 | > 100 | Cc1ccc2c(c1)C(=NO)C(=O)N2CCCOC1O[C@@H]2O[C@@]3(C)CC[C@H]4[C@H](C)CC[C@@H]([C@H]1C)[C@@]24OO3 (stereo partly drawn) [6g, 3-(hydroxyimino)-5-methyl-1-(3-(((3R,5aS,6R,8aS,9R,12R,12aR)-3,6,9-trimethyldecahydro-12H-3,12-epoxy[1,2]dioxepino[4,3-i]isochromen-10-yl)oxy)propyl)indolin-2-one] | – | >1.8 | – | – | – |
| 51.6 | 73.5 | 60.2 | – | – | 1.17 | > 100 | COc1ccc2c(c1)C(=NO)C(=O)N2CCCOC1O[C@@H]2O[C@@]3(C)CC[C@H]4[C@H](C)CC[C@@H]([C@H]1C)[C@@]24OO3 (stereo partly drawn) [6i, 3-(hydroxyimino)-5-methoxy-1-(3-(((3R,5aS,6R,8aS,9R,12R,12aR)-3,6,9-trimethyldecahydro-12H-3,12-epoxy[1,2]dioxepino[4,3-i]isochromen-10-yl)oxy)propyl)indolin-2-one] | – | >1.9 | – | – | – |
| > 100 | > 100 | > 100 | – | – | – | > 100 | C[C@@H]1CC[C@H]2[C@@H](C)C(OCCCN3C(=O)C(=O)c4ccccc43)O[C@@H]3O[C@@]4(C)CC[C@@H]1[C@]32OO4 (stereo partly drawn) [5a, 1-(3-(((3R,5aS,6R,8aS,9R,12R,12aR)-3,6,9-trimethyldecahydro-12H-3,12-epoxy[1,2]dioxepino[4,3-i]isochromen-10-yl)oxy)propyl)indoline-2,3-dione] | – | – | – | – | – |
| 24.7 | 26.9 | 31.9 | – | 1.08 | 1.29 | > 100 | C[C@@H]1CC[C@H]2[C@@H](C)C(OCCCN3C(=O)C(=NO)c4cc(Cl)ccc43)O[C@@H]3O[C@@]4(C)CC[C@@H]1[C@]32OO4 (stereo partly drawn) [6f, 5-chloro-3-(hydroxyimino)-1-(3-(((3R,5aS,6R,8aS,9R,12R,12aR)-3,6,9-trimethyldecahydro-12H-3,12-epoxy[1,2]dioxepino[4,3-i]isochromen-10-yl)oxy)propyl)indolin-2-one] | – | >4.0 | – | – | – |
| 69.4 | 88 | 75.9 | 69.4 to 88 | 1.27 | 1.09 | > 100 | C[C@H]1[C@@H](O)O[C@@H]2O[C@@]3(C)CC[C@H]4[C@H](C)CC[C@@H]1[C@@]24OO3 [DHA, Dihydroartemisinin] | – | >1.4 | – | – | – |
| > 100 | > 100 | > 100 | – | – | – | > 100 | C[C@@H]1CC[C@H]2[C@@H](C)C(OCCCN3C(=O)C(=NNC(N)=O)c4cc(F)ccc43)O[C@@H]3O[C@@]4(C)CC[C@@H]1[C@]32OO4 (stereo partly drawn) [6d, 2-(5-fluoro-2-oxo-1-(3-(((3R,5aS,6R,8aS,9R,12R,12aR)-3,6,9-trimethyldecahydro-12H-3,12-epoxy[1,2]dioxepino[4,3-i]isochromen-10-yl)oxy)propyl)indolin-3-ylidene)hydrazine-1-carboxamide] | – | – | – | – | – |
| 4.06 | 54.3 | 15.1 | 4.06 to 54.3 | – | – | 93.8 | COc1cccc2c1C(=O)c1c(O)c3c(c(O)c1C2=O)C[C@@](O)(C(=O)CO)C[C@@H]3O[C@H]1C[C@H](N)[C@H](O)[C@H](C)O1 [doxorubicin, reference compound] | – | – | – | – | – |
| 53.6 | 49.7 | 79.8 | – | 0.93 | 1.49 | > 100 | C[C@@H]1CC[C@H]2[C@@H](C)C(OCCCN3C(=O)C(=O)c4cc(Cl)ccc43)O[C@@H]3O[C@@]4(C)CC[C@@H]1[C@]32OO4 (stereo partly drawn) [5c, 5-chloro-1-(3-(((3R,5aS,6R,8aS,9R,12R,12aR)-3,6,9-trimethyldecahydro-12H-3,12-epoxy[1,2]dioxepino[4,3-i]isochromen-10-yl)oxy)propyl)indoline-2,3-dione] | – | >1.8 | – | – | – |
| 99.6 | 87.3 | 94.2 | – | 0.88 | 0.95 | > 100 | Cc1ccc2c(c1)C(=NNC(N)=S)C(=O)N2CCCOC1O[C@@H]2O[C@@]3(C)CC[C@H]4[C@H](C)CC[C@@H]([C@H]1C)[C@@]24OO3 (stereo partly drawn) [6h, 2-(5-methyl-2-oxo-1-(3-(((3R,5aS,6R,8aS,9R,12R,12aR)-3,6,9-trimethyldecahydro-12H-3,12-epoxy[1,2]dioxepino[4,3-i]isochromen-10-yl)oxy)propyl)indolin-3-ylidene)hydrazine-1-carbothioamide] | – | >1.0 | – | – | – |
| > 100 | > 100 | > 100 | – | – | – | > 100 | COc1ccc2c(c1)C(=O)C(=O)N2CCCOC1O[C@@H]2O[C@@]3(C)CC[C@H]4[C@H](C)CC[C@@H]([C@H]1C)[C@@]24OO3 (stereo partly drawn) [5e, 5-methoxy-1-(3-(((3R,5aS,6R,8aS,9R,12R,12aR)-3,6,9-trimethyldecahydro-12H-3,12-epoxy[1,2]dioxepino[4,3-i]isochromen-10-yl)oxy)propyl)indoline-2,3-dione] | – | – | – | – | – |
| > 100 | > 100 | > 100 | – | – | – | > 100 | Cc1ccc2c(c1)C(=O)C(=O)N2CCCOC1O[C@@H]2O[C@@]3(C)CC[C@H]4[C@H](C)CC[C@@H]([C@H]1C)[C@@]24OO3 (stereo partly drawn) [5d, 5-methyl-1-(3-(((3R,5aS,6R,8aS,9R,12R,12aR)-3,6,9-trimethyldecahydro-12H-3,12-epoxy[1,2]dioxepino[4,3-i]isochromen-10-yl)oxy)propyl)indoline-2,3-dione] | – | – | – | – | – |

| SMILES | IC50 (A549 lung cancer cells; Homo sapiens) [µM] | IC50 ([1]; Homo sapiens) [µM] | IC50 ([2]; Homo sapiens) [µM] | IC50 [4] [µM] | RI1 (Resistance index: IC50(A549/DOX)/IC50(A549)) [1] | RI2 (Resistance index: IC50(A549/DDP)/IC50(A549)) [2] | IC50 [3] [µM] | IC50 ([3]; BEAS-2B normal lung epithelial cells) [µM] | SI (Selectivity index: IC50(BEAS-2B)/IC50(A549)) [5] | IC50 (A549 lung cancer cells) [µM] | IC50 [1] [µM] | IC50 [2] [µM] |
| --- | --- | --- | --- | --- | --- | --- | --- | --- | --- | --- | --- | --- |
| N.N.[Cl][Pt][Cl] [cisplatin, reference compound] | – | – | – | 9.38 to 66.9 | – | – | – | – | – | 9.38 | 19.7 | 66.9 |

Reference: publication PMC8826081, “Three-Carbon Linked Dihydroartemisinin-Isatin Hybrids: Design, Synthesis and Their Antiproliferative Anticancer Activity” (Frontiers in Pharmacology, 2022)
